Test results reported in patent US20210317099A1, “SAFER, POTENT, AND FAST ACTING ANTIMICROBIAL AGENTS” (Purdue Research Foundation, priority 2020, published 2021).

How the values were obtained:
[1] = test system: intracellular MRSA USA400 inside murine macrophage (J774) cells; assay: Clearance of intracellular MRSA in infected J774 macrophages; format: cell-based, Staphylococcus aureus; details: 24 hours, J774 infected with MRSA USA400
Experimental: The ability of the compound 148 to reduce the burden of intracellular MRSA was evaluated utilizing previously described methods. Murine macrophage cells (J774) were cultured in Dulbecco's Modified Eagle Medium (DMEM) supplemented with 10% FBS at 37° C. with CO2 (5%). J774 cells were exposed to MRSA USA400 cells at a multiplicity of infection of approximately 10:1. After 1 hour of infection, J774 cells were washed with gentamicin (200 μg/mL) to kill extracellular MRSA. The compounds or vancomycin (at 4×MIC and 8×MIC) were subsequently added to each well (four replicates per test agent). Control cells received DMSO at a concentration equal to that in drug-treated cell samples. After 24 hours-incubation at 37° C. with 5% CO2, the test agents were removed. J774 cells were washed and subsequently lysed using 0.1% Triton-X. The solution was serially diluted in phosphate-buffered saline and transferred to TSA plates in order to determine viable MRSA CFU inside the J774 cells. Plates were incubated at 37° C. for 18-22 hour before counting viable CFU/mL. Statistical significance was assessed with two-way ANOVA, with post hoc Dunnet's multiple comparisons test (P<0.05), utilizing GraphPad Prism 6.0 (GraphPad Software, La Jolla, Calif.).
FIG. 6. Examination of the activity of compounds 148 on the clearance of intracellular MRSA present inside infected murine macrophage (J774) cells. […] Data were analyzed via two-way ANOVA, with post hoc Dunnet's multiple comparisons test (P<0.05), utilizing GraphPad Prism 6.0 (GraphPad Software, La Jolla, Calif.). Asterisks (*) represent significant difference between treatment of J774 cells with compound 148 in comparison to vancomycin.

[2] = test system: human keratinocytes cell line (HaCaT cells); assay: In vitro cytotoxicity, MTS assay; format: cell-based; details: 2 h
Experimental: Compounds 144, 148, 149, 151, 155, and 158 were assayed (at concentrations of 16, 32, and 64 μg/mL) against a human keratinocytes cell line (HaCaT cells) to determine their in vitro potential toxic effect. Briefly, cells were cultured in Dulbecco's Modified Eagle Medium (DMEM) supplemented with 10% fetal bovine serum (FBS) and penicillin-streptomycin at 37° C. in presence of 5% CO2. Compounds were added in the first row of the 96-well plate. Control cells received DMSO alone at a concentration equivalent to that in drug-treated wells. The cells were incubated with the compounds (in triplicate) in a 96-well plate at 37° C. in presence of 5% CO2 for two hours. The assay reagent MTS 3-(4,5-dimethylthiazol-2-yl)-5-(3-carboxymethoxyphenyl)-2-(4-sulfophenyl)-2H-tetrazolium) (Promega, Madison, Wis., USA) was subsequently added and the plate was incubated for three to four hours. Absorbance readings (at OD490) were recorded using a kinetic microplate reader (Molecular Devices, Sunnyvale, Calif., USA). The quantity of viable cells after treatment with each compound was expressed as a percentage of the viability to DMSO-treated control cells (average of triplicate wells±standard deviation).
FIG. 2. Analyzing the toxicity of compounds 144, 148, 149, 151, 155 and 158 (tested in triplicates at 16, 32 and 64 μg/mL) against human keratinocytes cells (HaCaT) using the MTS 3-(4,5-dimethylthiazol-2-yl)-5-(3-carboxymethoxyphenyl)-2-(4-sulfophenyl)-2H-tetrazolium) assay. Results are presented as percent viable cells relative to DMSO (negative control to determine a baseline measurement for the cytotoxic impact of each compound). The absorbance values represent an average of three samples analyzed for each compound. Error bars represent standard deviation values. The data were analyzed via a two-way ANOVA with post-hoc Dunnett's test for multiple comparisons. An asterisk (*) denotes statistical significance (P<0.05) between results for compounds and DMSO.

Row | Compound | reduction of intracellular MRSA ([1]; 4 μg/mL) [log10] | reduction of intracellular MRSA (percent) ([1]; 4 μg/mL) [%] | reduction of intracellular MRSA ([1]; 8 μg/mL) | reduction of intracellular MRSA (percent) ([1]; 8 μg/mL) [%] | tolerable concentration as multiple of MIC against MRSA [2] [times]
1 | C=C(C(=O)OC)C(c1ccc2ccccc2c1)C(O)c1cccc2ccccc12 (centres unmarked) [Compound 148] | 0.8 | 84.9 | about 2.52 log10 | 99.7 | –
2 | C=C1C(=O)O[C@H](c2ccccc2)[C@@H]1c1cccc2ccccc12 [Compound 151] | – | – | – | – | 16 to 32
